Patent US11759480B2, “Compositions and methods for CAR T cell therapy” (ENDOCYTE, INC., priority 2017, dated 2023)
Blank lines part the entries; values can stand above or below the molecule they belong to.

Legend:
[1] = system: anti-fluorescein scFv on CAR T cells; experiment: Competitive binding assay against FITC-Alexa647 on CAR T cells; conditions: 1 μM competing ligand versus FITC-Alexa647 10 nM
Description: To examine the ability of bridge molecules to bind anti-fluorescein scFv on CAR T cells, a competitive binding assay was developed. Measurement of the fluorescein signal from CAR T cell bound bridges could not be used due to the overlap of its fluorescence with that of the GFP expressing CAR T cells. For this purpose, FITC-Alexa647 (10 nM) was allowed to bind anti-fluorescein CAR T cells in the absence or presence of excess (1 μM) competing ligand (i.e. FITC-folate, FITC-DUPA, FITC-CA9) for 1 h at room temperature. After incubation, anti-fluorescein CAR T cells were washed 3× with PBS to remove unbounded FITC-Alexa647, and the washed cells were analyzed for Alexa647 fluorescence by flow cytometry.
Fluorescein-folate (FITC-folate) and fluorescein-PSMA (FITC-DUPA) were synthesized as previously described. To examine the ability of these bridge molecules to bind anti-fluorescein scFv on CAR T cells, a competitive binding assay had to be developed, because measurement of the fluorescein signal from CAR T cell bound bridge could not be used due to the overlap of its fluorescence with that of the GFP expressing CAR T cells. For this purpose, FITC-Alexa647 (10 nM) was allowed to bind anti-fluorescein CAR T cells in the absence or presence of excess (1 μM) competing ligand (i.e. FITC-folate) for 1 h at room temperature. After incubation, anti-fluorescein CAR T cells were washed 3× with PBS to remove unbounded FITC-Alexa647, and the washed cells were analyzed for Alexa647 fluorescence by flow cytometry. For analysis of FITC-folate to binding to folate receptor, FR positive KB cells were incubated with FITC-folate (100 nM) in the absence or presence of excess (10 μM) free folate (i.e. as a competitive ligand). After washing samples with PBS (3 times), samples were analyzed by flow cytometry for fluorescein-folate binding.

[2] = system: PSMA+ MDA-MB-231 and CA9+ MDA-MB-231; experiment: Two tumors treated with cocktail of bridge molecules in vivo (Example 42); set-up: species or system NSG mice; conditions: only one of the bridges infused
From the text: In order to evaluate whether a cocktail of bridge molecules can eliminate two tumors expressing orthogonal antigens, we established two different tumor models. As a first tumor model, each of PSMA+ MDA-MB-231 and CA9+ MDA-MB-231 were implanted into NSG mice at two different locations (i.e. right flank: CA9+ MDA-MB-231, left flank: PSMA+ MDA-MB-231). For the second tumor model, PSMA+ MDA-MB-231 and CA9+ MDA-MB-231 were pre-mixed at a 1:1 ratio and implanted at one location.
PSMA+ MDA-MB-231 and CA9+ MDA-MB-231 were implanted into NSG mice (Jackson Laboratory, ME) either at two different locations (i.e. right flank: PSMA+ MDA-MB-231, left flank: CA9+ MDA-MB-231) or one location after two tumor cells were pre-mixed (i.e. 50% of PSMA+ MDA-MB-231 and 50% of CA9+ MDA-MB-231). When tumors reached ˜100 mm3 in size, anti-fluorescein CAR T cells (8×10^6) were injected plus FITC-DUPA, FITC-CA9 or both. Tumors were measured every other day with calipers, and tumor volume was calculated according to the equation: Tumor volume=½(L×W2) where L is the longest axis of the tumor and W is the axis perpendicular to L. Results are shown in FIGS. 49A and 49B.

[3] = system: MDA-MB-231 solid tumor xenografts; assay type: in vivo
Description: MDA-MB-231 cells were subcutaneously injected into the shoulders of NSG mice (Jackson Laboratory) to establish solid tumor xenografts. When tumor volume reached around 50-100 mm^3, anti-FITC CAR T cells (15×10^6 cells) were intravenously introduced into tumor-bearing mice. Twenty NSG mice were divided into four study groups (5 animals in each group). The first group was treated with anti-FITC CAR T cells with phosphate-buffered saline (PBS) as a negative control. The second, third, and fourth groups were treated with anti-FITC CAR T cells with FITC-Folate (500 nmole/kg) every other day. Once a significant toxicity (e.g. serious loss of body weight) was detected, these groups were treated with either: continued FITC-Folate administration (second group); discontinuation of FITC-Folate administration until the mice recovered (third group); or a mixture of 100-fold excess of EC0923 (i.e. free folate) and FITC-Folate until the mice recovered (fourth group). The body weight was measured regularly to monitor toxicity. In addition, the blood concentration of interferon (IFN)-gamma for each treatment group was measured to monitor the degree of anti-FITC CAR T activation. Finally, tumor volume was measured to identify anti-tumor efficacy in each treatment group.

[4] = system: MDA-MB-231 solid tumor xenografts; experiment: Control of CAR T cell activation in vivo: break, FA competitor or both (Example 19)
Description: Five study groups were designed to test whether anti-FITC CAR T cell activation can be controlled via temporal termination of FITC-ligands, by administering a competitor small molecule, or a combination approach of both discontinuing of FITC-ligands and/or administering an FA competitor. The first group was treated by administering anti-FITC CAR T cell with phosphate-buffered saline (PBS) as a negative control. Every other day over the course of the study, the second, third, fourth and fifth groups were treated with anti-FITC CAR T cell mixed with FITC-Folate (500 nmole/kg). […] Mouse bodyweight was measured regularly to test for toxicity.

MDA-MB-231 cells = experiment: Control of CRS with bridge molecules in vivo (Example 43); set-up: species or system NSG mice
Description: Mice were maintained on folic acid-deficient diet (TD.95247, Envigo) in order to reduce the level of folic acid in mice to a physiological levels found in humans. Tumors were measured every other day with calipers, and tumor volume was calculated according to equation: Tumor volume=½(L×W^2) where L is the longest axis of the tumor and W is the axis perpendicular to L. Mouse blood was also collected to measure cytokine levels (e.g. IL-2, IL-6, IFNγ, and TNFα) using LEGENDplex bead-based immunoassay (Biolegend, CA) and systemic toxicity was monitored by measuring body weight loss. All animal care and use followed by National Institutes of Health (NIH) guidelines and all experimental protocols were approved by the Purdue Animal Care and Use Committee.

MDA-MB-231 tumors [5] = experiment: Comparison of three rescue reagents (Example 32); conditions: for order of sCRS severity (from worst to least): 10 hours after rescue, Leucovorin 10, folic acid 10, sodium fluorescein 260 umol/kg; for tumor outcome of rescued mice: single rescue dose, EC17 continued
Description: To evaluate whether mice with FITC-CAR-T therapy related sCRS can be rescued by using competitors which may displace EC17 from either FITC-CAR-T or FR+ tumor cells, 49 NSG mice bearing MDA-MB-231 tumors (150-250 mm3) were administered with excess FITC-CAR-T cells (8 million), 36 of them were then dosed with 500 nmol/kg EC17 48 hours post CAR-T administration, 6 of them were not dosed with EC17 and were used as “No EC17” control, and 7 of them were dosed with 260 umol/kg sodium fluorescein (no EC17 but Fluorescein) to test its toxicity. […] Each group was i.v. injected with 10 umol/kg of Leucovorin, or 10 umol/kg folic acid, or 260 umol/kg sodium fluorescein, or nothing as an un-rescued control. […] Mouse body weight changes were also monitored as the indication of toxicity. […] To evaluate whether the rescue injections affect the anti-tumor activity of FITC-CAR-T cells, these mice were dosed with 500 nmol/kg EC17 twice per week (days 9, 11, 15, 18, 22, 25, etc.) and the tumor size was monitored.

[6] = system: severe cytokine release syndrome in mice bearing tumors; experiment: Rescue ability of EC0923 during CAR T cell treatment (Example 18); assay type: in vivo
Description: CAR T cells were introduced into mice bearing tumors and EC17 was also introduced (i.v.) three times per week. When severe cytokine release syndrome was observed, one dose of EC0923 at 10 μmoles/kg was introduced to rescue mice. Mice were monitored for 4 more days, and some were euthanized to evaluate organs. Mice with one dose of EC0923 started to move and look for food after 4 hours, and their spleens and livers were red. Control mice without EC0923 didn't move after 6 hours, and their spleens and livers were pale. Mice with EC0923 treatment were active again in 24 hours and expected to survive, and were put back to a normal EC17 dosing schedule. Control mice without EC0923 started to move a little in 24 hours, but had to be euthanized to prevent animal suffering. Mice with EC0923 looked normal in 4 days. One of the mice was euthanized and found to have normal colored spleen and liver. […] Other remaining mice with EC0923 were given routine EC17 dosing three times per week, and their tumors disappeared in 4 weeks.

MDA-MB-231 tumors [7] = experiment: Rescue ability of competitors during CAR T cell treatment (Example 23); assay type: in vivo, mice; conditions: for time until mice looked normal / time until mice started to move and look for food / time until mice were active again: one i.v. dose 10 μmoles/kg at sCRS
Description: When severe cytokine release syndrome was observed, one dose of EC0923 (folate) or untethered fluorescein (both at 10 μmoles/kg) was introduced intravenously to rescue mice (FIG. 16). Mice with one dose of EC0923 or fluorescein started to move and look for food after 4 hours, were active again in 24 hours, and looked normal in 4 days. EC17 administration was then continued. Control mice without EC0923 or fluorescein didn't move after 4 hours, and had to be euthanized because of the sickness. […] All mice tested for cytokine production were injected with 8 million CAR-T cells.

MDA-MB-231 tumors [8] = experiment: CAR-T number in blood after rescue with EC0923 or fluoresceinamine (Example 31); assay type: in vivo, NSG mice; conditions: for earliest time of increased CAR-T count in blood: 10 umol/kg i.v.; for CAR-T number in blood: 10 umol/kg i.v. at sCRS
Description: EC17/CAR-T therapy strategy is controllable through bridge displacement by either free folate or free fluorescein. […] Mice from three groups were then euthanized at 8, 12, 24 and 48 hours post injection of EC0923 or fluoresceinamine, and their blood samples were analyzed for CAR-T cell number and cytokine levels. CAR-T cells in blood were stained with anti-human CD45 antibody labeled with APCeF780 (Biolegend) and counted by FACS. CountBright™ Absolute Counting Beads (ThermoFisher Scientific) were mixed into the samples and used as a reference for cell counting.

MDA-MB-231 = experiment: Effect of Folate-FITC on CAR-T cell number and serum cytokines (Example 21); assay type: in vivo, NSG mice; conditions: 500 nmole/kg, 10^7 CAR T cells, Day 6
Description: The triple negative human breast cancer cell line (i.e. MDA-MB-231) was subcutaneously implanted into the shoulders of immunodeficient (e.g. NSG) mice. When tumor volume reached around 50-100 mm^3, anti-FITC CAR T cells (10^7 cells) were intravenously introduced with either FITC-folate (500 nmole/kg) or PBS. To monitor CAR T cell proliferation and pro-inflammatory cytokine production, mice blood was collected at Day 6. CAR T cell proliferation was evaluated by staining a whole blood sample with anti-human CD3 antibody (Biolegned) and detecting GFP expression on the CD3 positive T cell population. Pro-inflammatory cytokine production was measured by a bead-based immunoassay (Legendplex kit from biolegend).

[9] = 100-fold excess on days 4 and 6
[10] = within 3 hours, 6 μmole/kg free fluorescein

Molecule: O=C(O)CC[C@H](NC(=O)N[C@@H](CCC(=O)NCCCCCCCC(=O)N[C@@H](Cc1ccccc1)C(=O)N[C@@H](Cc1ccccc1)C(=O)NCCNC(=S)Nc1ccc(-c2c3ccc(=O)cc-3oc3cc(O)ccc23)c(C(=O)O)c1)C(=O)O)C(=O)O [FITC-DUPA]
binding to CAR-expressing T cells [1]: able to bind to the CAR-expressing T cells | growth of tumor expressing unmatched antigen [2]: continuously grew

Molecule: Nc1nc(=O)c2nc(CNc3ccc(C(=O)N[C@@H](CCC(=O)O)C(=O)O)cc3)cnc2[nH]1 [EC0923]
IFN-gamma blood concentration ([3]; competitor group): decreased | survival of mice at the first week of treatment ([3]; competitor group: 100-fold excess of free folate mixed with FITC-Folate at day 4 and day 6): all of the mice in both the break and competitor groups survived | control of CAR T cell mediated toxicity ([4]; 100-fold excess with FITC-Folate (FITC-Folate+FA Competitor)): able to control the degree of CAR T cell activation to alleviate CAR T cell mediated toxicity | control of CAR T cell mediated toxicity ([4]; termination of FITC-Folate plus excess free folic acid (Break+FA Competitor)): better efficacy in decreasing CAR T cell mediated toxicity compared to each approach alone

Molecule: Nc1nc2ncc(CNc3ccc(C(=O)N[C@@H](CCC(=O)O)C(=O)O)cc3)nc2c(=O)[nH]1 [folic acid, reference compound]
IFNγ level (MDA-MB-231 cells; [9]): reduced the level of IFNγ | body weight (MDA-MB-231 cells; [9]): rapidly prevented the continuous weight loss | therapeutic potency of CAR T cell therapy (MDA-MB-231 cells; [9]): enhanced the therapeutic potency | order of sCRS severity (from worst to least) (MDA-MB-231 tumors [5]): no rescue group>leucovorin rescue group>folic acid rescue group>sodium fluorescein rescue group>no EC17 group | tumor outcome of rescued mice (MDA-MB-231 tumors [5]): complete response

Molecule: Nc1nc2c(c(=O)[nH]1)N(C=O)C(CNc1ccc(C(=O)N[C@@H](CCC(=O)O)C(=O)O)cc1)CN2 (some centres unmarked) [Leucovorin]
order of sCRS severity (from worst to least) (MDA-MB-231 tumors [5]): no rescue group>leucovorin rescue group>folic acid rescue group>sodium fluorescein rescue group>no EC17 group | tumor outcome of rescued mice (MDA-MB-231 tumors [5]): complete response

Molecule: Nc1nc2ncc(CNc3ccc(C(=O)N[C@@H](CCCN[C@H](CC(=O)O)C(=O)N[C@H](CC(=O)O)C(=O)O)C(=O)O)cc3)nc2c(=O)[nH]1 [EC0923]
complete response ([3]; competitor group (100-fold excess EC0923 + FITC-Folate)): 75% | time until mice looked normal ([6]; one dose 10 μmoles/kg at sCRS): 4 days | time until mice started to move and look for food ([6]; one dose 10 μmoles/kg at sCRS): 4 h | time until mice were active again ([6]; one dose 10 μmoles/kg at sCRS): 24 h | time until tumors disappeared ([6]; rescued mice, routine EC17 dosing three times per week resumed): 4 weeks | time until mice looked normal (MDA-MB-231 tumors [7]): 4 days | time until mice started to move and look for food (MDA-MB-231 tumors [7]): 4 h | time until mice were active again (MDA-MB-231 tumors [7]): 24 h | tumor outcome four weeks later (MDA-MB-231 tumors [7]; rescue treatment, EC17 continued): tumors were eliminated | earliest time of increased CAR-T count in blood (MDA-MB-231 tumors [8]): 6 h | CAR-T number in blood (MDA-MB-231 tumors [8]): increase of CAR-T number in blood circulation

Molecule: O=C1OC2(c3ccc(O)cc3Oc3cc(O)ccc32)c2ccccc21 [fluorescein, reference compound]
time until mice looked normal (MDA-MB-231 tumors [7]): 4 days | time until mice started to move and look for food (MDA-MB-231 tumors [7]): 4 h | time until mice were active again (MDA-MB-231 tumors [7]): 24 h | time to decrement of plasma IFNγ (MDA-MB-231 cells; post fluorescein injection): 6 h | decrease of plasma IL-2 (MDA-MB-231 cells; [10]): > 50% | decrease of plasma IL-6 (MDA-MB-231 cells; [10]): > 50% | decrease of plasma TNF-α (MDA-MB-231 cells; [10]): > 50%

CAR-T displacement compared with EC0923 (MDA-MB-231 tumors [8]; 10 umol/kg): more CAR-T displacement than folate
Molecule: Nc1ccc2c(c1)C(=O)OC21c2ccc(O)cc2Oc2cc(O)ccc21 [fluoresceinamine]
earliest time of increased CAR-T count in blood (MDA-MB-231 tumors [8]): 6 h | CAR-T number in blood (MDA-MB-231 tumors [8]): increase of CAR-T number in blood circulation

Molecule: FITC-Folate [EC17]
anti-FITC CAR T cell proliferation in blood (MDA-MB-231): proliferated significantly | pro-inflammatory cytokines (IL-2, TNF-α, IFN-γ) (MDA-MB-231): significantly produced

Molecule: FITC-PEG2-CA9 [FITC-CA9]
binding to CAR-expressing T cells [1]: able to bind to the CAR-expressing T cells | growth of tumor expressing unmatched antigen [2]: continuously grew
